Test results from patent publication US5879716A, “Methods and compositions for topical delivery of benzoyl peroxide” (priority 1993, dated 1999).
Read-outs that look alike come from different tables or passages of the source.

What was measured:
[1] = Solubility of benzoyl peroxide; format: physicochemical
[2] = cited from earlier work
[3] = human skin specimens used within 7 to 10 days; cited from earlier work

O=C(OOC(=O)c1ccccc1)c1ccccc1 [Benzoyl peroxide, benzoyl peroxide]
solution concentration obtainable ([1]; acetone and isopropanol): up to 10 % by weight
solubility of the drug in the formulation ([1]; formulations F and G): very low solubility
solubility ([1]; water or normal saline solution): exceedingly low solubility
solubility ([2]; alcohols): slightly soluble in alcohols
solubility ([2]; organic solvents): soluble in nearly all organic solvents
solubility ([2]; organic solvents, listed as benzoyl peroxide): limited solubility in most solvents
solubility ([2]; water): slightly soluble in water
metabolism during skin absorption [3]: metabolized to benzoic acid and accumulated as such in the receptor fluid
